Reference: paper PMC5328627 (Journal of natural products, 2009)

What was measured:
Assay type in all cases: cell-based, human
NCI-H522 = details: non-small cell lung cancer cell line; single high dose 10^−5 M
IGROV1 = details: ovarian cancer cell line; single high dose 10^−5 M
UO-31 = details: renal cancer cell line; single high dose 10^−5 M

Substance	Percent growth of NCI-H522 (NCI-H522) [%]	Percent growth of IGROV1 (IGROV1) [%]	Percent growth of UO-31 (UO-31) [%]
cyclo(FSPIFPI) (SMILES CC[C@H](C)[C@@H]1NC(=O)[C@@H]2CCCN2C(=O)[C@H](CO)NC(=O)[C@H](Cc2ccccc2)NC(=O)[C@H]([C@@H](C)CC)NC(=O)[C@@H]2CCCN2C(=O)[C@H](Cc2ccccc2)NC1=O) [compound 4, euryjanicin D]	94.6	100	82.7
cyclo(SIPLFPI) (SMILES CC[C@H](C)[C@@H]1NC(=O)[C@@H]2CCCN2C(=O)[C@H](Cc2ccccc2)NC(=O)[C@H](CC(C)C)NC(=O)[C@@H]2CCCN2C(=O)[C@H]([C@@H](C)CC)NC(=O)[C@H](CO)NC1=O) [compound 3, euryjanicin C]	95.1	100	83.4
cyclo(ATPFVPP) (SMILES CC(C)[C@@H]1NC(=O)[C@H](Cc2ccccc2)NC(=O)[C@@H]2CCCN2C(=O)[C@H]([C@@H](C)O)NC(=O)[C@H](C)NC(=O)[C@@H]2CCCN2C(=O)[C@@H]2CCCN2C1=O) [compound 2, euryjanicin B]	83.9	91.3	76.3
dominicin [compound 5]	100	100	32.8
euryjanicin A [compound 1]	72.2	82.6	73.6
